# Patent US9247732B2, “Agrochemical formulations containing a compatibility agent” (priority 2011, dated 2016)
# Assay: Tank-mix compatibility test of dodine 400 SC with another pesticide or adjuvant
# Type: physicochemical
# Settings: dodine 400 SC 1.25 l/200 l water plus other pesticide or adjuvant, observed after mixing for 30 minutes
# Experimental: Test protocols for evaluating the compatibility of pesticide active ingredients and adjuvants are readily available and known to a person skilled in the art. A method suitable for use in the present invention is as follows: fill a 250 ml beaker with 200 ml of well water (temperature 15-17° C., water hardness 8° dH corresponding to 80 mg calcium oxide/l). […] Add a magnetic stirrer to the beaker. Stir the suspension for approximately 5 minutes at a speed of rotation of 700 rotations per minute. Add a mixing partner, such as an adjuvant or second plant protection product to the suspension. Stir the suspension for an additional 15 minutes. Stop stirring when a total stirring time of 20 minutes is obtained. Let the suspension stand unstirred for a few minutes. Then check for any separation, sediment, crystallization or flocculation. Note down the results of the visual observation. Stir the suspension for a further 20 minutes. Stop the stirring. After 2 hours have lapsed assess the compatibility for a second time. Upon finishing the second observation, pour the whole suspension over a 100 μm sieve. Note down if residue is present on the sieve.
# Tank-mixes comprising dodine without acetate were prepared. […] Mixing was stopped.
# As a comparison, the same tank-mixes were prospered, this time comprising dodine with acetate (A′-E′). […] Mixing was stopped after 30 minutes.
# [1] = with sodium acetate 0.36 kg/200 l
Structure (SMILES),Compatibility test [1],Compatibility test (without compatibility agent)
"Cc1cc(C)nc(Nc2ccccc2)n1 [pyrimethanil, N-(4,6-dimethylpyrimidin-2-yl)aniline]",improved the compatibility,not possible due to incompatibility problems
"COc1cccc(C(=O)NN(C(=O)c2cc(C)cc(C)c2)C(C)(C)C)c1C [methoxyfenozide, benzoic acid, 3-methoxy-2-methyl-, 2-(3,5-dimethylbenzoyl)-2-(1,1-dimethylethyl)hydrazide]",improved the compatibility,not possible due to incompatibility problems
CCC(C)(C)C(=O)OC1=C(c2ccc(Cl)cc2Cl)C(=O)OC12CCCCC2 [spirodiclofen],improved the compatibility,not possible due to incompatibility problems
